Measured values from PubChem BioAssay (NCI).
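In this assay, cells in 96-well plates receive the compound at five concentrations for 48 hours. Endpoints are linearly interpolated between the surrounding concentrations. GI50 marks 50% less growth. TGI: concentration producing complete growth inhibition.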

Key:
Test in all cases: NCI tumour cell line growth inhibition, 48 h
OVCAR-8 ovarian = tested on: OVCAR-8 ovarian
SNB-19 CNS = tested on: SNB-19 CNS
SK-OV-3 ovarian = tested on: SK-OV-3 ovarian
EKVX NSCLC = tested on: EKVX NSCLC
LOX IMVI melanoma = tested on: LOX IMVI melanoma
NCI-H460 lung = tested on: NCI-H460 lung
HOP-92 NSCLC = tested on: HOP-92 NSCLC
UACC-257 melanoma = tested on: UACC-257 melanoma
NCI/ADR-RES ovarian = tested on: NCI/ADR-RES ovarian

Question: How did the TGI (OVCAR-8 ovarian) turn out when `CCOC(=O)C(c1ccsc1)P(=O)(OCC)OCC` (stereo unspecified) was run?
Answer: Its TGI is 43.3 µM.

Question: And the TGI (SNB-19 CNS)?
Answer: The TGI was 44.4 µM.

Question: What about the TGI (SK-OV-3 ovarian) of the same compound?
Answer: The TGI was 77.2 µM.

Question: And the TGI (EKVX NSCLC)?
Answer: Its TGI is 80.1 µM.

Question: And the TGI (LOX IMVI melanoma)?
Answer: Its TGI is 19.3 µM.

Question: What about the TGI (NCI-H460 lung) of the same compound?
Answer: Its TGI is 66.4 µM.

Question: What about the TGI (HOP-92 NSCLC) of the same compound?
Answer: The TGI was 46.4 µM.

Question: What about the TGI (UACC-257 melanoma) of the same compound?
Answer: The TGI was 33.2 µM.

Question: Which TGI (OVCAR-8 ovarian) does the source give for `COc1ccc(C)cc1-c1ccc(-c2cc(C)ccc2OC)o1` here?
Answer: Its TGI is greater than 100 µM.

Question: What about the TGI (SNB-19 CNS) of the same compound?
Answer: The TGI was greater than 100 µM.

Question: What about the TGI (SK-OV-3 ovarian) of the same compound?
Answer: The TGI was greater than 100 µM.

Question: And the TGI (EKVX NSCLC)?
Answer: The TGI was greater than 100 µM.

Question: What about the TGI (LOX IMVI melanoma) of the same compound?
Answer: Its TGI is greater than 100 µM.

Question: And the TGI (NCI-H460 lung)?
Answer: Its TGI is greater than 100 µM.

Question: What about the TGI (HOP-92 NSCLC) of the same compound?
Answer: Its TGI is greater than 100 µM.

Question: What about the TGI (UACC-257 melanoma) of the same compound?
Answer: Its TGI is greater than 100 µM.

Question: Which TGI (OVCAR-8 ovarian) does the source give for `CC1(C)CCOC(Sc2ccccc2)C1` (stereo unspecified) here?
Answer: Its TGI is greater than 100 µM.

Question: And the TGI (SNB-19 CNS)?
Answer: Its TGI is greater than 100 µM.

Question: And the TGI (SK-OV-3 ovarian)?
Answer: Its TGI is greater than 100 µM.

Question: And the TGI (EKVX NSCLC)?
Answer: Its TGI is greater than 100 µM.

Question: What about the TGI (LOX IMVI melanoma) of the same compound?
Answer: Its TGI is greater than 100 µM.

Question: And the TGI (NCI-H460 lung)?
Answer: The TGI was greater than 100 µM.

Question: And the TGI (UACC-257 melanoma)?
Answer: Its TGI is greater than 100 µM.

Question: How did the TGI (OVCAR-8 ovarian) turn out when `O=S(=O)(c1ccccc1)C1(C2(S(=O)(=O)c3ccccc3)CCN=N2)CCN=N1` (stereo unspecified) was run?
Answer: The TGI was greater than 100 µM.

Question: What about the TGI (SNB-19 CNS) of the same compound?
Answer: Its TGI is greater than 100 µM.

Question: What about the TGI (SK-OV-3 ovarian) of the same compound?
Answer: The TGI was greater than 100 µM.

Question: What about the TGI (EKVX NSCLC) of the same compound?
Answer: Its TGI is greater than 100 µM.

Question: What about the TGI (LOX IMVI melanoma) of the same compound?
Answer: The TGI was greater than 100 µM.

Question: What about the TGI (NCI-H460 lung) of the same compound?
Answer: The TGI was greater than 100 µM.

Question: What about the TGI (UACC-257 melanoma) of the same compound?
Answer: Its TGI is greater than 100 µM.

Question: Which results are given for `Cc1nc2ccccc2c(/C=C/c2ccc(C(F)(F)F)cc2)c1C(=O)/C=C/c1ccccc1`?
Answer: GI50 (OVCAR-8 ovarian): 1.64 µM; TGI (OVCAR-8 ovarian): 4.91 µM; GI50 (NCI/ADR-RES ovarian): 1.97 µM; TGI (NCI/ADR-RES ovarian): 4.76 µM; GI50 (SNB-19 CNS): 1.64 µM; TGI (SNB-19 CNS): 3.01 µM; GI50 (SK-OV-3 ovarian): 1.54 µM; TGI (SK-OV-3 ovarian): 2.98 µM; GI50 (EKVX NSCLC): 1.61 µM; TGI (EKVX NSCLC): 2.99 µM; GI50 (LOX IMVI melanoma): 1.58 µM; TGI (LOX IMVI melanoma): 2.94 µM; GI50 (NCI-H460 lung): 1.13 µM; TGI (NCI-H460 lung): 2.57 µM; GI50 (HOP-92 NSCLC): 1.32 µM; TGI (HOP-92 NSCLC): 2.98 µM; GI50 (UACC-257 melanoma): 1.61 µM; TGI (UACC-257 melanoma): 3.17 µM

Question: `O=S(=O)([O-])c1ccc(C=Nc2ccccc2)c([O-])c1.O=S(=O)([O-])c1ccc(C=Nc2ccccc2)c([O-])c1.[Co+2]` was tested. Which GI50 (OVCAR-8 ovarian) did it give?
Answer: The GI50 was 50.6 µM.

Question: What about the TGI (OVCAR-8 ovarian) of the same compound?
Answer: Its TGI is greater than 100 µM.

Question: What about the GI50 (SNB-19 CNS) of the same compound?
Answer: Its GI50 is greater than 100 µM.

Question: What about the TGI (SNB-19 CNS) of the same compound?
Answer: The TGI was greater than 100 µM.

Question: What about the GI50 (SK-OV-3 ovarian) of the same compound?
Answer: Its GI50 is greater than 100 µM.

Question: And the TGI (SK-OV-3 ovarian)?
Answer: Its TGI is greater than 100 µM.

Question: And the GI50 (EKVX NSCLC)?
Answer: The GI50 was 43.2 µM.

Question: And the TGI (EKVX NSCLC)?
Answer: The TGI was greater than 100 µM.

Question: And the GI50 (LOX IMVI melanoma)?
Answer: The GI50 was 3.01 µM.

Question: What about the TGI (LOX IMVI melanoma) of the same compound?
Answer: Its TGI is greater than 100 µM.

Question: And the GI50 (HOP-92 NSCLC)?
Answer: Its GI50 is greater than 100 µM.

Question: What about the TGI (HOP-92 NSCLC) of the same compound?
Answer: The TGI was greater than 100 µM.

Question: What about the GI50 (UACC-257 melanoma) of the same compound?
Answer: The GI50 was greater than 100 µM.

Question: And the TGI (UACC-257 melanoma)?
Answer: Its TGI is greater than 100 µM.

Question: For `CN(COC(=O)C(C)(C)C)c1nc(N(C)COC(=O)C(C)(C)C)nc(N(C)COC(=O)C(C)(C)C)n1`, which TGI (NCI/ADR-RES ovarian) is on record?
Answer: Its TGI is greater than 100 µM.

Question: And the TGI (SNB-19 CNS)?
Answer: Its TGI is greater than 100 µM.

Question: What about the TGI (SK-OV-3 ovarian) of the same compound?
Answer: Its TGI is greater than 100 µM.

Question: What about the TGI (EKVX NSCLC) of the same compound?
Answer: Its TGI is greater than 100 µM.

Question: And the TGI (NCI-H460 lung)?
Answer: The TGI was greater than 100 µM.

Question: What about the TGI (UACC-257 melanoma) of the same compound?
Answer: Its TGI is greater than 100 µM.

Question: For `CCOC(=O)N1C/C(=C\c2ccc(N(C)C)cc2)C(=O)/C(=C/c2ccc(N(C)C)cc2)C1`, which TGI (OVCAR-8 ovarian) is on record?
Answer: Its TGI is greater than 100 µM.

Question: And the TGI (SNB-19 CNS)?
Answer: Its TGI is greater than 100 µM.

Question: What about the TGI (SK-OV-3 ovarian) of the same compound?
Answer: Its TGI is greater than 100 µM.

Question: What about the TGI (EKVX NSCLC) of the same compound?
Answer: The TGI was greater than 100 µM.

Question: What about the TGI (LOX IMVI melanoma) of the same compound?
Answer: The TGI was greater than 100 µM.

Question: What about the TGI (NCI-H460 lung) of the same compound?
Answer: The TGI was greater than 100 µM.

Question: And the TGI (HOP-92 NSCLC)?
Answer: The TGI was greater than 100 µM.

Question: And the TGI (UACC-257 melanoma)?
Answer: The TGI was greater than 100 µM.
